In US10022421B2, “Treatment of primary and metastatic carcinoma” (Spectrum Pharmaceuticals Inc., priority 2012, dated 2018):
Numbered stars: 1 amine (or outer) side, 2 acyl side, 3 side chain; on linkers, the order of the positions; unused ones are H or OH. Ends that are not written are not given here. Suc = O=C(CCC(=O)[*:2])[*:1]

Columns and labels:
[1] = system: progressive or recurrent carcinoma; assay: Open label, single arm, dose escalation study of IRL-1620 in combination with docetaxel: anti-tumor activity; type: in vivo, human
Text: Patient characteristics were as follows.
CT or MRI scans are used to assess the patient's tumor size. A series of dynamic contrast enhancer pattern MRI scans are used to measure any increases in blood flow induced by IRL 1620.

[2] = system: blood flow in tumor and non-tumor regions; assay: H2^15O PET Blood Flow scans after IRL-1620; type: in vivo, human; conditions: patients, PET blood flow scans on Day 8
[3] = 30 patients, IRL-1620 with docetaxel
[4] = previously docetaxel treated prostate cancer patient

N-Succunyl-[Glu^9, Ala^11,15] Endothelin-1 (8-21) (Suc-DEEAVYFAHLDIIW) [IRL-1620, ETB receptor agonist]
time on study of patients with prolonged clinical benefit ([1]; 4 cases, IRL-1620 with docetaxel): 20-74 weeks
cases of prolonged clinical benefit [1, 3]: 4 cases
cases of stable disease [1, 3]: 5 cases
prolonged clinical benefit rate [1, 3]: 13%
stable disease (SD) rate [1, 3]: 16%
anti-tumor activity ([1]; docetaxel-pretreated patients): Anti-tumor activity was seen
time to complete regression of lung metastasis ([1]; one patient with cholangiocarcinoma): ≤ 3 months
time on study before progressing ([1]; one patient with cholangiocarcinoma, complete regression of lung metastasis): 41 weeks
discontinuation of the study due to disease progression ([1]; patients, IRL-1620 with docetaxel): 84%
PSA response [1, 4]: PSA response
change in metastatic prostate cancer [1, 4]: measurable decrease
changes in blood flow [2]: did not result in any measurable changes
